Legend:
[1] = target: T1, Stromelysin-1 (Homo sapiens, UniProt P08254); experiment: Inhibitory activity against MMP3
Target sequence in this assay (P08254 whole entry): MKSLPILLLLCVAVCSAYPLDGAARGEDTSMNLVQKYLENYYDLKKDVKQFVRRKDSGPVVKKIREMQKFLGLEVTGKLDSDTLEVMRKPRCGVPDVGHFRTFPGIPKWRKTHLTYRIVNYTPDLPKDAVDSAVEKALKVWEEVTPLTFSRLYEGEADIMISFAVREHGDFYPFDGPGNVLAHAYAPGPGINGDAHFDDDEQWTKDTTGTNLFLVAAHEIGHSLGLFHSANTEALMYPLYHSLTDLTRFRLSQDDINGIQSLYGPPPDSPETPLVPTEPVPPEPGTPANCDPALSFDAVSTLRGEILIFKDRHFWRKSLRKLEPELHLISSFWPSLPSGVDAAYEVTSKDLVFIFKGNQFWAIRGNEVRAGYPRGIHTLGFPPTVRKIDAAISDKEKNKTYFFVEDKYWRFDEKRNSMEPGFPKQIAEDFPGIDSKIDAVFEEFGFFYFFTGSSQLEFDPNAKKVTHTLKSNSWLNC

[2] = target: 72 kDa type IV collagenase (Homo sapiens, UniProt P08253); experiment: Inhibitory activity against MMP2
[3] = target: T1, Stromelysin-1; experiment: Inhibitory activity against MMP3 at 0.1 mM
Target sequence in this assay (P08254 100-477 limits assumed): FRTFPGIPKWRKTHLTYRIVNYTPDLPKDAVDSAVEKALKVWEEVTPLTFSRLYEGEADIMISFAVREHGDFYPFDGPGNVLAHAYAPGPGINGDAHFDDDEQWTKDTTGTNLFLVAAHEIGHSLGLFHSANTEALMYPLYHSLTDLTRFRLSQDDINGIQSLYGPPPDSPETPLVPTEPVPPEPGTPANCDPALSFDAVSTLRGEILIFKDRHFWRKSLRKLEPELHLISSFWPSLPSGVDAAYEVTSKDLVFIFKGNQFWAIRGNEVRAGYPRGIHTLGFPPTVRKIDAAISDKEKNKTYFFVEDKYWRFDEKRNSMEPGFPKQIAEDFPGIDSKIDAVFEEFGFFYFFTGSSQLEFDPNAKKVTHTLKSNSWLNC

Chain of 72 kDa type IV collagenase (P08253 whole entry): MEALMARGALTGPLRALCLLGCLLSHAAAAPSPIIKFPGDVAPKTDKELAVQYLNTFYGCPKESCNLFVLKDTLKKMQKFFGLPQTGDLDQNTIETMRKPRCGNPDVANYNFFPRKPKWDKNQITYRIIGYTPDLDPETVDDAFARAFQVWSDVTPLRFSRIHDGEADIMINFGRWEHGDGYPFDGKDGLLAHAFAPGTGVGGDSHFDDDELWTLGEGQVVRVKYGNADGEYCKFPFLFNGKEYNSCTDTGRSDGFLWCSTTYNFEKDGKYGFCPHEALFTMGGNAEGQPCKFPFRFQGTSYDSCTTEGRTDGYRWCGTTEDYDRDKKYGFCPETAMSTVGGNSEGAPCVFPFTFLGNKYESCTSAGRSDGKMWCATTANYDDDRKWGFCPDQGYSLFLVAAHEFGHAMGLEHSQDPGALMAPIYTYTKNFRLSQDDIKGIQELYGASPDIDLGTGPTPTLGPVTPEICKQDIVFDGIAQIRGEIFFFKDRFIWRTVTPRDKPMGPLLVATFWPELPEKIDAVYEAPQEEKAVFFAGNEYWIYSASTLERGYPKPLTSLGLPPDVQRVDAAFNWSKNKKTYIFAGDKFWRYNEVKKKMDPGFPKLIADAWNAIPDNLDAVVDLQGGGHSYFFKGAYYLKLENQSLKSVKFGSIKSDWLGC

Row | Ki [1] [nM] | Ki [2] [nM] | inhibition [3] [%] | IC50 [1] [nM] | IC50 [2] [nM] | SMILES
1 | 40 | 5 | – | – | – | COc1ccc(-c2ccc(S(=O)(=O)N[C@@H](C(C)C)P(=O)(O)O)cc2)cc1
2 | – | 1200 | < 15 | – | – | COc1ccc(-c2ccc(S(=O)(=O)N[C@H](C(C)C)P(=O)(O)O)cc2)cc1
3 | – | – | – | 8 | 3 | CC(C)[C@@H](NS(=O)(=O)c1ccc(-c2ccc(Br)cc2)cc1)C(=O)NO

From ChEMBL document CHEMBL1148622, “Structural insight into the stereoselective inhibition of MMP-8 by enantiomeric sulfonamide phosphonates” (J Med Chem, 2006)
